The source of these data is US9089572B2, “Inhibitors of p97” (California Institute of Technology, priority 2008, dated 2015).

The structures appear in SMILES notation. Values joined by “and” are separate entries in the source; they are usually repeats but may differ in a detail not shown here. Equal entries are not always repeated.

Experiment [1] deals with 13 different cell lines. Put plainly: MTT cell growth assay, summary across 13 different cell lines. It is filed as cell-based. The conditions noted are these: read-out: 50% inhibition of growth (GI50) across the 13 different cell lines; range across 13 cell lines. As to the method: (§1) To probe further the effect of compound 2 and related compounds 1, 3, 5, 6 and 7, various concentrations of these compounds were added to 13 different cell lines and incubated for 48 or 72 h. An MTT assay was then performed to evaluate cell growth and survival.
Data for the assay with MCF-7 cells and HeLa cells is shown in FIG. 21 and FIG. 22, respectively. […] Thus, compound 2 blocks p97-dependent processes in cells and also blocks the proliferation of cancer cell lines, illustrating its potential utility as an anti-proliferative drug to treat cancer.
On the technique in general: Tetrazolium assays rely on reduction of a dye to a coloured formazan, in cell work by metabolically active cells.

Experiment [2] concerns HeLa. Put plainly: MTT cell growth assay, HeLa. The format is cell-based. The following applies: Homo sapiens, 48 or 72 h, read-out: Cell line inhibition of growth GI50 HeLa. As to the method:
as §1

For experiment [3], the target named is cysteine 522 of p97 (Mus musculus, UniProt Q01853). Kind of experiment: Tandem mass spectrometry of tryptic peptides of inhibited p97. It is filed as binding. The following applies: trypsin digest, HPLC. As to the method:
To determine if inhibition by compound 2 requires a reactive thiol, the experiment was repeated with p97 except that various nucelophiles were included during the preincubation. […] To evaluate whether compound 2 modifies cysteine 522, inhibited p97 was digested with trypsin and peptides were fractionated by HPLC and analyzed by tandem mass spectrometry.

Experiment [4] relates to MRC5-WT. Put plainly: CellTiter-Glo growth inhibition, parental MRC5 cells. It is filed as cell-based. The conditions noted are these: Homo sapiens, 48 h at 37° C., read-out: Cell line inhibition of growth GI50 MRC5-WT. (In general: In ATP-based viability assays light output follows the ATP content of the culture.)
In experiment [5] the test system is LNCaP. Put plainly: MTT cell growth assay, LNCaP. It is filed as cell-based. The conditions noted are these: Homo sapiens, 48 or 72 h, read-out: Cell line inhibition of growth GI50 LNCaP. On the procedure:
as §1

Experiment [6] concerns PC3. Kind of experiment: MTT cell growth assay, PC3. The format is cell-based. The conditions noted are these: Homo sapiens, PC-3, 48 or 72 h, read-out: Cell line inhibition of growth GI50 PC3. As to the method: as §1
The test system of experiment [7] is DU145. Kind of experiment: MTT cell growth assay, DU145. It is filed as cell-based. The conditions noted are these: Homo sapiens, DU-145, 48 or 72 h, read-out: Cell line inhibition of growth GI50 DU145. As to the method:
as §1

In experiment [8] the target is wild type murine p97 (Mus musculus, UniProt Q01853). Put plainly: In vitro ATP hydrolysis (malachite green ATPase assay), wild type murine p97. It is filed as biochemical. As to the method:
Compounds were tested for their ability to inhibit the ATPase activity of purified wild type murine p97 and T532C-Cdc48, a mutant of yeast Cdc48 in which the residue analogous to cysteine 522, threonine 532, was converted to cysteine.

Experiment [9] has as its system RPMI8226. Put plainly: MTT cell growth assay, RPMI8226. The following applies: Homo sapiens, RPMI-8226, 48 or 72 h, read-out: Cell line inhibition of growth GI50 RPMI8226. The format is cell-based. On the procedure: as §1

Sequence of wild type murine p97 (Q01853 whole entry): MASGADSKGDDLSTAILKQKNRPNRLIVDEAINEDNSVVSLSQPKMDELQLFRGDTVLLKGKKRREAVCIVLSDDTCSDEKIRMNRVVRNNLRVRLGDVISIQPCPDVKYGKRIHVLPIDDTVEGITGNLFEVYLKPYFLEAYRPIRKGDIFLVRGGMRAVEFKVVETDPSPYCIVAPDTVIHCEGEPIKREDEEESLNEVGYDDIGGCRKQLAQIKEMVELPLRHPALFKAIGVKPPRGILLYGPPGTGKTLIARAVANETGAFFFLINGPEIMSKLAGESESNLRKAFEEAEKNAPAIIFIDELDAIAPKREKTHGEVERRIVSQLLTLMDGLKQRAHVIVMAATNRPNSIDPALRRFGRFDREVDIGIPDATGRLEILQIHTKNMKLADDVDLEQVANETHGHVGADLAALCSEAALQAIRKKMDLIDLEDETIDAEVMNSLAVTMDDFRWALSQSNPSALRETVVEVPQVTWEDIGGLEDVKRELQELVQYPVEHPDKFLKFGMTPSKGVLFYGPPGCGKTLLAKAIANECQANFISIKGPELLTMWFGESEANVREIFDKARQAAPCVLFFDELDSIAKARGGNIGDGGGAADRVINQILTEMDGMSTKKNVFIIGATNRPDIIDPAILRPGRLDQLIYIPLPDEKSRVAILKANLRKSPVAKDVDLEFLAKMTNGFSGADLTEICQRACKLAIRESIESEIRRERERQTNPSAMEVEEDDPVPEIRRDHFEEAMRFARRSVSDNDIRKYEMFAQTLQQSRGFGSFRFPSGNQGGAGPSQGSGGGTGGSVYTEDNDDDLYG
Sequence of cysteine 522 of p97 (Q01853 whole entry): as above

As a reminder, the GI50 is the concentration that inhibits growth by half. The term IC50 denotes the concentration needed to halve the response being measured. Regarding `C=CC(=O)Nc1ncnc2c1c(-c1ccccc1)nn2C(C)(C)C` [Compound 2], the GI50 in experiment [1] is 0.4 to 5.1 µM; in [2], 0.4 ± 0.3 µM; in experiment [4] it was 17 ± 10 µM; in experiment [5], 2.7 ± 1.2 µM; in experiment [6], 2.2 ± 1.1 µM; in experiment [7] it was 3.6 ± 1.5 µM. Also, the GI50 in experiment [9] amounted to 0.4 ± 0.1 µM. The “covalent modification of cysteine 522” value in experiment [3] is “formed a covalent adduct on cysteine 522”. Also, the IC50 in experiment [8] (200 nM p97, 20 min preincubation at 23° C., malachite green, read-out: In vitro ATP Hydrolysis Activity IC50 WT-mP97) is 0.6 µM and 0.62 µM. For the same molecule, in [8] (cysteine or dithiothreitol in the preincubation buffer), the “inhibitory effect on p97 with nucleophiles in the preincubation” value is “counteracted”.
